Test system: Plasmodium berghei
Assay: Luciferase/luciferin-expressing antifolate-resistant parasites were used to infect a culture of HepG2 cells that were pre-incubated with compounds. Infected hepatocytes emit light due to the luciferase reaction. Assay results are presented as the percent inhibition of light emission compared to control. […]
Assay type: functional
Conditions: sporozoite; for IC90: read-out: LUCIFERASE INFECTION ASSAY - IC90
[1] = read-out: LUCIFERASE INFECTION ASSAY - IC50

Cc1cc(-c2nc(=O)c3ccccc3[nH]2)c(C)n1-c1cccc(S(=O)(=O)N2CCOCC2)c1 was tested, and the IC50 (PBLUC_HILL_SLOPE 0.619, PBLUC_R_SQUARED 0.0201, read-out: LUCIFERASE INFECTION ASSAY - IC50) was over 10 µM and the IC90 was over 10 µM.

Work on Clc1ccc(CNc2ncnc3sccc23)cc1 yielded an IC50 [1] of 3.31 µM and an IC90 of over 10 µM.

CC(Oc1ccc2[nH]c3ccccc3c(=O)c2c1)C(=O)NC(=O)NC12CC3CC(CC(C3)C1)C2 (stereo not given) gave an IC50 (PBLUC_HILL_SLOPE 24.7, PBLUC_R_SQUARED 0.64, read-out: LUCIFERASE INFECTION ASSAY - IC50) of 2.84 µM and an IC90 of 3.1 µM.

For CCC(CC)CN1CCC2(CC1)C(=O)N(Cc1ccc(OC)cc1)C(=O)N2CC(C)C, the IC50 [1] was over 7.68 µM and the IC90 was over 7.68 µM.

CC(=O)N(c1nc(/C=C/C(=O)c2ccc(F)c(Br)c2)cs1)c1ccc(F)cc1F gave an IC50 [1] of over 10 µM and an IC90 of over 10 µM.

CC(C)Oc1ccc(Nc2cc3c(cn2)nc(NCc2ccccc2)n3C)cc1 showed an IC50 (PBLUC_HILL_SLOPE 3.16, PBLUC_R_SQUARED 0.219, read-out: LUCIFERASE INFECTION ASSAY - IC50) of 5.76 µM and an IC90 of over 10 µM.

Compound O=C(NC1CCN(c2ccc(S(=O)(=O)C(F)F)cc2)CC1)C1CC1 has an IC50 (HEPG2TOX_HILL_SLOPE 4.17, HEPG2TOX_R_SQUARED 0.587, PBLUC_HILL_SLOPE 17, PBLUC_R_SQUARED 0.152, read-out: LUCIFERASE INFECTION ASSAY - IC50) of 8.89 µM and an IC90 of over 10 µM.

For O=C(NCCN1CCc2ccccc2C1)c1cc2ccccc2cc1O, the IC50 (PBLUC_HILL_SLOPE 16.8, PBLUC_R_SQUARED 0.317, read-out: LUCIFERASE INFECTION ASSAY - IC50) was 3.31 µM and the IC90 was 3.77 µM.

Cc1cc(N2CCN(C)CC2)n2ncc(-c3ccc(F)cc3)c2n1 gave an IC50 (PBLUC_HILL_SLOPE 0.664, PBLUC_R_SQUARED 0.928, read-out: LUCIFERASE INFECTION ASSAY - IC50) of 0.571 µM and an IC90 of over 10.1 µM.

CCOc1cc(C(=O)Oc2cccc(Cl)c2Cl)cc(OCC)c1OCC showed an IC50 (FFLUC_HILL_SLOPE 1.16, FFLUC_R_SQUARED 0.617, read-out: LUCIFERASE INFECTION ASSAY - IC50) of over 10 µM and an IC90 of over 10 µM.

With CCOC(=O)c1c(C)nn(-c2ccc(N3C(=O)C=CC3=O)cc2)c1C the IC50 (PBLUC_HILL_SLOPE 1.49, PBLUC_R_SQUARED 0.186, read-out: LUCIFERASE INFECTION ASSAY - IC50) was 6.99 µM and the IC90 was over 9.72 µM.

Cc1cc2nc3n(c2cc1C)C1(Nc2ccccc2-3)C(=O)Nc2ccccc21 (stereo not given) showed an IC50 (PBLUC_HILL_SLOPE 13.5, PBLUC_R_SQUARED 0.192, read-out: LUCIFERASE INFECTION ASSAY - IC50) of 3.06 µM and an IC90 of 3.6 µM.

CC(NC(=O)C12CC3CC(CC(C3)C1)C2)C(=O)N/N=C/C1=C(N2CCOCC2)C(=C\c2ccccc2)/CC1 (stereo not given) was tested, and the IC50 (FFLUC_HILL_SLOPE 17.7, FFLUC_R_SQUARED 0.505, PBLUC_HILL_SLOPE 17.3, PBLUC_R_SQUARED 0.294, read-out: LUCIFERASE INFECTION ASSAY - IC50) was 9.09 µM and the IC90 was over 10 µM.

CCc1nc(N2CCN(C(=O)c3ccco3)CC2)c2ccc(Cl)cc2n1 was tested, and the IC50 (PBLUC_HILL_SLOPE 3.74, PBLUC_R_SQUARED 0.373, read-out: LUCIFERASE INFECTION ASSAY - IC50) was 6.91 µM and the IC90 was over 8.9 µM.

In the case of CCOc1cc(C(=O)N(CC2CCCO2)C2CCS(=O)(=O)C2)cc(OCC)c1OCC (stereo not given), the IC50 [1] is reported as over 10 µM and the IC90 is reported as over 10 µM.

With COc1ccc(-c2cnc3ccc(NCc4cccc(Cl)c4)nn23)cc1 the IC50 (HEPG2TOX_HILL_SLOPE 4.15, HEPG2TOX_R_SQUARED 0.863, PBLUC_HILL_SLOPE 14.2, PBLUC_R_SQUARED 0.0441, read-out: LUCIFERASE INFECTION ASSAY - IC50) was 6.9 µM and the IC90 was 8.06 µM.

Compound CC(C)(C)NC(=S)Nc1ccccc1N1CCCCC1 has an IC50 (HEPG2TOX_HILL_SLOPE 2.33, HEPG2TOX_R_SQUARED 0.936, read-out: LUCIFERASE INFECTION ASSAY - IC50) of over 11.3 µM and an IC90 of over 11.3 µM.

In the case of NC(c1csc(Nc2nccc(C(F)(F)F)n2)n1)C1CCCCC1 (stereo not given), the IC50 [1] is reported as 2.8 µM and the IC90 is reported as 3.66 µM.

CCc1ccc(Cl)c(CC)c1NC(=O)CCc1c(C)c2ccc(C)cc2oc1=O was tested, and the IC50 (HEPG2TOX_HILL_SLOPE 2.1, HEPG2TOX_R_SQUARED 0.669, read-out: LUCIFERASE INFECTION ASSAY - IC50) was over 10 µM and the IC90 was over 10 µM.

N#Cc1cccc(Nc2nc(C(F)(F)F)nc3ccccc23)c1 was tested, and the IC50 (PBLUC_HILL_SLOPE 4.2, PBLUC_R_SQUARED 0.258, read-out: LUCIFERASE INFECTION ASSAY - IC50) was 8.32 µM and the IC90 was over 10 µM.

Work on Cc1sc2nc(CSc3ccccc3)nc(N3CCN(CC(=O)NC4CC4)CC3)c2c1C yielded an IC50 (PBLUC_HILL_SLOPE 2.61, PBLUC_R_SQUARED 0.67, read-out: LUCIFERASE INFECTION ASSAY - IC50) of 5.13 µM and an IC90 of over 10 µM.

With Cn1c(CNC(=O)c2cc(-c3ccccc3)c(N3CCOCC3)s2)nc2ccccc21 the IC50 [1] was over 10 µM and the IC90 was over 10 µM.

Work on O=S1(=O)CC(S(=O)(=O)c2cccs2)c2ccccc21 (stereo not given) yielded an IC50 [1] of over 10.5 µM and an IC90 of over 10.5 µM.

N#C/C(C(=O)c1ccc([N+](=O)[O-])s1)=C1\Nc2ccccc2S1 gave an IC50 (HEPG2TOX_HILL_SLOPE 0.276, HEPG2TOX_R_SQUARED 0.471, PBLUC_HILL_SLOPE 0.885, PBLUC_R_SQUARED 0.549, read-out: LUCIFERASE INFECTION ASSAY - IC50) of 0.951 µM and an IC90 of over 10 µM.

COc1ccc(-c2nn(-c3ccccc3)cc2/C=C/C(=O)N2CCc3ccccc32)cc1OC was tested, and the IC50 [1] was over 10 µM and the IC90 was over 10 µM.

With CCCSc1ccc2c3c(cccc13)C(=O)N(CCc1ccccn1)C2=O the IC50 [1] was over 8.77 µM and the IC90 was over 8.77 µM.

For Cc1ccc(Nc2ccnc(Nc3ccc(C)cc3)n2)cc1, the IC50 (PBLUC_HILL_SLOPE 2.32, 3.33, PBLUC_R_SQUARED 0.458, 0.517, read-out: LUCIFERASE INFECTION ASSAY - IC50) was 4.86 µM and the IC90 was over 10 µM.

CCC(=O)c1ccc(OCCCCn2cnc3ccccc32)cc1 gave an IC50 [1] of over 10 µM and an IC90 of over 10 µM.

CNC(=O)c1ccc2n1CCN(C(=O)OCc1ccccc1)C2C (stereo not given) gave an IC50 (PBLUC_HILL_SLOPE 1.5, PBLUC_R_SQUARED 0.67, read-out: LUCIFERASE INFECTION ASSAY - IC50) of 3.17 µM and an IC90 of over 10 µM.

For O=C(Nc1ccccc1)Nc1ccc(Sc2cccs2)cc1, the IC50 (HEPG2TOX_HILL_SLOPE 12.6, HEPG2TOX_R_SQUARED 0.73, PBLUC_HILL_SLOPE 4.46, PBLUC_R_SQUARED 0.693, read-out: LUCIFERASE INFECTION ASSAY - IC50) was 5.46 µM and the IC90 was 8.94 µM.

Work on CC(C1CC2CCC1C2)N1C(=O)C(=O)N(CC(=O)Nc2cccc(F)c2)C1=O (stereo not given) yielded an IC50 (PBLUC_HILL_SLOPE 16.7, 2.98, PBLUC_R_SQUARED 0.617, 0.740, read-out: LUCIFERASE INFECTION ASSAY - IC50) of 4.13 µM and an IC90 of 3.86 µM.

Compound Cc1cc(C(=O)C(C)OC(=O)c2ccc(NS(=O)(=O)c3ccc4c(c3)OCCO4)cc2)c(C)n1-c1ccc(Cl)cc1 (stereo not given) has an IC50 (FFLUC_HILL_SLOPE 2.2, FFLUC_R_SQUARED 0.531, HEPG2TOX_HILL_SLOPE 0.947, HEPG2TOX_R_SQUARED 0.641, PBLUC_HILL_SLOPE 4.36, PBLUC_R_SQUARED 0.544, read-out: LUCIFERASE INFECTION ASSAY - IC50) of 6.62 µM and an IC90 of over 10 µM.

For COc1cccc(Nc2nnc(SCC(=O)N(c3ccccc3)C(C)C)s2)c1, the IC50 [1] was over 10 µM and the IC90 was over 10 µM.

Work on N#Cc1ccsc1NC(=O)CN1CCN(CC(=O)Nc2ccc(Cl)c(C(F)(F)F)c2)CC1 yielded an IC50 (PBLUC_HILL_SLOPE 1.73, PBLUC_R_SQUARED 0.28, read-out: LUCIFERASE INFECTION ASSAY - IC50) of 5.03 µM and an IC90 of over 10 µM.

O=[N+]([O-])c1cccc(-c2csc(-n3nccc3C(F)(F)F)n2)c1 showed an IC50 [1] of over 10 µM and an IC90 of over 10 µM.

For N#C/C(=N\Nc1ccc(F)c(Cl)c1)C(=O)c1ccc(Cl)cc1, the IC50 [1] was 1.07 µM and the IC90 was 1.26 µM.

For CCCc1cc(NCCN(C)C)n2ncc(-c3ccccc3)c2n1, the IC50 (PBLUC_HILL_SLOPE 2.98, PBLUC_R_SQUARED 0.437, read-out: LUCIFERASE INFECTION ASSAY - IC50) was 4.93 µM and the IC90 was over 10.2 µM.

Cn1c(Sc2ncnc3sccc23)nc2ccccc21 gave an IC50 (PBLUC_HILL_SLOPE 9.4, PBLUC_R_SQUARED 0.756, read-out: LUCIFERASE INFECTION ASSAY - IC50) of 4.26 µM and an IC90 of 5.38 µM.

Work on Cc1ccc(C)c(-n2c(SCCOc3ccccc3C)nnc2-c2ccccc2Cl)c1 yielded an IC50 (FFLUC_HILL_SLOPE 1.3, FFLUC_R_SQUARED 0.027, HEPG2TOX_HILL_SLOPE 7.63, HEPG2TOX_R_SQUARED 0.817, read-out: LUCIFERASE INFECTION ASSAY - IC50) of over 10 µM and an IC90 of over 10 µM.

Work on O=C(OCC(=O)C12CC3CC(CC(C3)C1)C2)c1ccc(Oc2ccc(Cl)cc2[N+](=O)[O-])cc1 yielded an IC50 (FFLUC_HILL_SLOPE 17.5, FFLUC_R_SQUARED 0.352, PBLUC_HILL_SLOPE 8.52, PBLUC_R_SQUARED 0.214, read-out: LUCIFERASE INFECTION ASSAY - IC50) of 9.42 µM and an IC90 of over 10 µM.

O=C(Nc1nccs1)c1ccc(N2CCCCCC2)nc1 gave an IC50 (PBLUC_HILL_SLOPE 1.4, PBLUC_R_SQUARED 0.612, read-out: LUCIFERASE INFECTION ASSAY - IC50) of 2.36 µM and an IC90 of over 10 µM.

For Cc1ccc2nc(NC(=O)c3cn(C)nc3-c3ccc4c(c3)OCCCO4)sc2c1, the IC50 [1] was over 10 µM and the IC90 was over 10 µM.

Compound CC1CCCN(C(=O)COc2ccc(-c3nc4ccccc4s3)cc2)C1 (stereo not given) has an IC50 (HEPG2TOX_HILL_SLOPE 6.02, HEPG2TOX_R_SQUARED 0.809, PBLUC_HILL_SLOPE 2.74, PBLUC_R_SQUARED 0.285, read-out: LUCIFERASE INFECTION ASSAY - IC50) of 6.51 µM and an IC90 of over 10 µM.

In the case of Oc1cccc(-c2cnc3ccc(-c4cccc5ncccc45)nn23)c1, the IC50 (HEPG2TOX_HILL_SLOPE 3.26, HEPG2TOX_R_SQUARED 0.941, PBLUC_HILL_SLOPE 1.24, PBLUC_R_SQUARED 0.528, read-out: LUCIFERASE INFECTION ASSAY - IC50) is reported as 1.84 µM and the IC90 is reported as over 10 µM.

Cc1ccc2c(CC(=O)Nc3sccc3C(N)=O)coc2c1 gave an IC50 [1] of over 10 µM and an IC90 of over 10 µM.

— ChEMBL document CHEMBL4483862, “Open-source discovery of chemical leads for next-generation chemoprotective antimalarials” (2018)
